Measurements as given in ChEMBL document CHEMBL5579804, “Synthesis and kinetic evaluation of phosphomimetic inhibitors targeting type B ribose-5-phosphate isomerase from Mycobacterium tuberculosis” (Bioorg Med Chem Lett, 2024).

Columns and labels:
[1] = Stability in Tris-HCl buffer spiked with calf serum incubated for 24 hrs; type: physicochemical, cell-free; settings: cattle
[2] = Stability in Tris-HCl buffer assessed as compound hydrolysis incubated for 24 hrs; type: physicochemical; settings: read-out: Drug degradation
[3] = Stability in Tris-HCl buffer spiked with alkaline phosphatase incubated for 24 hrs; type: physicochemical
[4] = target: T1, Ribose-5-phosphate isomerase B (Mycobacterium tuberculosis, UniProt P9WKD7); test: Competitive inhibition of Mycobacterium tuberculosis RPIB assessed as inhibition constant using D-ribose-5-phosphate as substrate by Cheng-Prusoff equation analysis
T1 sequence (P9WKD7 whole entry): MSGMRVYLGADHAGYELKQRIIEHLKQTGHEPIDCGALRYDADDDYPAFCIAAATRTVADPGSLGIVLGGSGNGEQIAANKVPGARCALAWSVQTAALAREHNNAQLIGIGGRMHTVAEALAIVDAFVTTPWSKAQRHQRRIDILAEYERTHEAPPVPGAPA

[5] = target: T2, Ribose-5-phosphate isomerase B (Escherichia coli (strain K12), UniProt P37351); test: Competitive inhibition of Escherichia coli RPIB using D-ribose-5-phosphate as substrate
T2 sequence (P37351 whole entry): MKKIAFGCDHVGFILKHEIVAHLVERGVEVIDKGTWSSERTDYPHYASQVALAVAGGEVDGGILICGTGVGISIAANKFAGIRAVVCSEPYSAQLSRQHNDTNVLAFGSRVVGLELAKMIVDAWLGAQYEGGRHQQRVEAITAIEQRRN

[6] = Stability in Tris-HCl buffer incubated for 24 hrs; type: physicochemical
[7] = target: T3, ribose-5-phosphate isomerase (Spinacia oleracea, UniProt Q8RU73); test: Competitive inhibition of Spinacia oleracea RPIA using D-ribose-5-phosphate as substrate
T3 sequence (Q8RU73 whole entry): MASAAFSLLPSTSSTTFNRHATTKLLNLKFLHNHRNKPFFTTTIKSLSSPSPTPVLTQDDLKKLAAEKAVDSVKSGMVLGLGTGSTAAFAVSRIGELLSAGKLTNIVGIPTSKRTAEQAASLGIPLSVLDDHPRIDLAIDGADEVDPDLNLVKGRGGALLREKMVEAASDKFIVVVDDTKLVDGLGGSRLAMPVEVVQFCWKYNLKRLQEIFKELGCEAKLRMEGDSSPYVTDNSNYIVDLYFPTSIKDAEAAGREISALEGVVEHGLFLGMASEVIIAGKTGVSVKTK

[8] = target: T1, Ribose-5-phosphate isomerase B; test: Competitive inhibition of Mycobacterium tuberculosis RPIB using D-ribose-5-phosphate as substrate
[9] = target: T3, ribose-5-phosphate isomerase; test: Competitive inhibition of Spinacia oleracea RPIA assessed as inhibition constant using D-ribose-5-phosphate as substrate by Cheng-Prusoff equation analysis
[10] = target: T2, Ribose-5-phosphate isomerase B; test: Competitive inhibition of Escherichia coli RPIB assessed as inhibition constant using D-ribose-5-phosphate as substrate by Cheng-Prusoff equation analysis
[11] = target: T1, Ribose-5-phosphate isomerase B; test: Competitive inhibition of Mycobacterium tuberculosis RPIB using D-ribose-5-phosphate as substrate assessed as inhibition constant by spectrophotometric analysis
[12] = target: T1, Ribose-5-phosphate isomerase B; test: Competitive inhibition of Mycobacterium tuberculosis RPIB using D-ribose-5-phosphate as substrate by spectrophotometric analysis
[13] = target: T2, Ribose-5-phosphate isomerase B; test: Competitive inhibition of Escherichia coli RPIB using D-ribose-5-phosphate as substrate by spectrophotometric analysis

O=P(O)(O)OC[C@H]1O[C@@H](O)[C@H](O)[C@@H]1O
Stability [1]: Unstable | degraded at 24 h [2]: 10% | Stability [3]: Unstable

CC(C(C(=O)O)C(=O)O)[C@@H](O)[C@@H](O)[C@@H](O)CCP(=O)(O)O (some centres not stated)
Ki [4]: 80 µM | IC50 [5]: 1360 µM | Stability [6]: Stable | IC50 [7]: > 1500 µM | IC50 [8]: 200 µM | Stability [1]: Stable | Ki [9]: > 750 µM | Stability [3]: Stable

CC(C(C(=O)O)C(=O)O)[C@@H](O)[C@@H](O)[C@@H](O)CCC(=O)O (some centres not stated)
Ki [4]: 290 µM | IC50 [5]: > 1500 µM | Stability [6]: Stable | IC50 [7]: > 1500 µM | IC50 [8]: 470 µM | Stability [1]: Stable | Ki [9]: > 750 µM | Stability [3]: Stable

O=S(=O)(O)OC[C@H]1OC(O)[C@H](O)[C@@H]1O (some centres not stated)
Ki [4]: 40 µM | IC50 [5]: 160 µM | Stability [6]: Stable | Ki [10]: 90 µM | IC50 [7]: 320 µM | IC50 [8]: 120 µM | Stability [1]: Unstable | Ki [9]: 180 µM | Stability [3]: Stable

O=S(=O)(O)CC[C@H]1OC(O)[C@H](O)[C@@H]1O (some centres not stated)
Ki [4]: 110 µM | IC50 [5]: 480 µM | Stability [6]: Stable | Ki [10]: 170 µM | IC50 [7]: 620 µM | IC50 [8]: 240 µM | Stability [1]: Stable | Ki [9]: 290 µM | Stability [3]: Stable

O=P(O)(O)CC[C@H]1OC(O)[C@H](O)[C@@H]1O (some centres not stated)
IC50 [5]: 2410 µM | Stability [6]: Stable | IC50 [7]: > 3000 µM | IC50 [8]: > 3000 µM | Stability [1]: Stable | Stability [3]: Stable

O=C(O)C(C[C@H]1OC(O)[C@H](O)[C@@H]1O)C(=O)O (some centres not stated)
Ki [4]: 340 µM | IC50 [5]: 1340 µM | Stability [6]: Stable | Ki [10]: 670 µM | IC50 [7]: 980 µM | IC50 [8]: 810 µM | Stability [1]: Stable | Ki [9]: 450 µM | Stability [3]: Stable

O=C(O)[C@@H](O)[C@@H](O)[C@@H](O)COP(=O)(O)O (single isomer, unassigned)
IC50 [5]: 1400 µM | IC50 [7]: 95 µM | Ki [11]: 9 µM | IC50 [12]: 31 µM | IC50 [8]: 21 µM | Stability [1]: Unstable | degraded at 24 h [2]: 20% | IC50 [13]: 1310 µM | Ki [9]: 38 µM | Stability [3]: Unstable
